The target in one assay is T1, human SGLT1 (Homo sapiens, UniProt P13866).
T1 construct: expressed in transfected cells; host or cells: CHO-K1
T1 sequence (P13866 1-664): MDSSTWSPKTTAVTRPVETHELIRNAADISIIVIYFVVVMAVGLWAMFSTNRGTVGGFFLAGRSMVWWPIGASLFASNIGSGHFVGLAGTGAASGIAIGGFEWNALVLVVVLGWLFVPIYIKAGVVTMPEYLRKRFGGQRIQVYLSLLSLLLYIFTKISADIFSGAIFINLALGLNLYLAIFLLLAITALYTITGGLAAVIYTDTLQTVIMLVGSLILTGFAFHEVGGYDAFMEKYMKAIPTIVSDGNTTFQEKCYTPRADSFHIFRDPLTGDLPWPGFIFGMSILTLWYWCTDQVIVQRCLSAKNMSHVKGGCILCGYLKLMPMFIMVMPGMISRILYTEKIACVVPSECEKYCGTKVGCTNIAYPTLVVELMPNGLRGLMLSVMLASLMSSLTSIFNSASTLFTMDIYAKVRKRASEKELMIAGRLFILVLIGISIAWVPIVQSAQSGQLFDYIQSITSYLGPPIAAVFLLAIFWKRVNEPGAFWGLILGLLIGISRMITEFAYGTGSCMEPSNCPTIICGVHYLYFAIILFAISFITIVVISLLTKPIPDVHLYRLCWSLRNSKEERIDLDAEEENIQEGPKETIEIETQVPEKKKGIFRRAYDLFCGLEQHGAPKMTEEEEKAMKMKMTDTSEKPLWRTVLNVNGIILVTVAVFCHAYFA
The assay is described as follows: Cell-based assay for sodium-dependent glucose transport (14C-AMG uptake), CHO-K1 cells stably expressing human SGLT1. To be noted: Na-dependent 14C-AMG uptake. The procedure: (§1) Cloning of the human SGLT1 and human SGLT2 cDNAs and construction of the mammalian expression vector: The human SGLT1 cDNA (Genbank M24847) was cloned from human small intestine. Human SGLT2 cDNA (Genbank M95549) was cloned from human kidney. Both full cDNAs were subcloned into pcDNA and sequenced to verify the integrity of the construct.
(§2) Generation of CHO-K1 cells stably expressing human SGLT1 or human SGLT2: Transfection of CHO-K1 cells was performed using DMRIE-C reagent (Life Technologies, Gaithersburg, Md.). Transfectants were then selected in the presence of the antibiotic G418 (Gibco-BRL, Grand Island, N.Y.) at 400 μg/ml. Individual clones were then characterized using the functional assay described below.
(§3) Cell-based assay for sodium-dependent glucose transport: Cell lines stably expressing human SGLT1 or SGLT2 were then used for functional analysis of Na+-dependent glucose uptake. Briefly, cells were plated at a density of 65,000 cells per well in a 96-well plate and allowed to grow for 48 hours. Cells were subsequently washed one time with Assay Buffer (50 mM HEPES pH 7.4, 20 mM Tris, 5 mM KCl, 1 mM MgCl2, 1 mM CaCl2 and 137 mM NaCl) and treated with compound in the absence or presence of NaCl for 15 minutes. Cells were then labeled with ^14C-α-methylglucopyranoside (AMG, Sigma, St. Louis, Mo.) a non-metabolizable glucose analog specific for sodium-dependent glucose transporters as previously described (Peng, H. and Lever J. E. Post-transcriptional regulation of Na^+/glucose cotransporter (SGLT1) gene expression in LLC-PK1 cells. J Biol Chem 1995; 270:20536-20542). After 2 hours the labelled cells were washed three times with ice-cold PBS. After aspiration, cells were solubilized using Microscint 20 (Packard, Meriden, Conn.) and Na-dependent ^14C-AMG uptake was quantified by measuring radioactivity.
(§4) Plates were counted in a TopCount (Packard, Meriden, Conn.). Results are reported as the % inhibition or IC50 value from a representative experiment. Variability for the functional assay was typically within 20%.

A further assay has as its target T2, human SGLT2 (Homo sapiens, UniProt P31639).
T2 construct: expressed in transfected cells; host or cells: CHO-K1
T2 sequence (P31639 1-672): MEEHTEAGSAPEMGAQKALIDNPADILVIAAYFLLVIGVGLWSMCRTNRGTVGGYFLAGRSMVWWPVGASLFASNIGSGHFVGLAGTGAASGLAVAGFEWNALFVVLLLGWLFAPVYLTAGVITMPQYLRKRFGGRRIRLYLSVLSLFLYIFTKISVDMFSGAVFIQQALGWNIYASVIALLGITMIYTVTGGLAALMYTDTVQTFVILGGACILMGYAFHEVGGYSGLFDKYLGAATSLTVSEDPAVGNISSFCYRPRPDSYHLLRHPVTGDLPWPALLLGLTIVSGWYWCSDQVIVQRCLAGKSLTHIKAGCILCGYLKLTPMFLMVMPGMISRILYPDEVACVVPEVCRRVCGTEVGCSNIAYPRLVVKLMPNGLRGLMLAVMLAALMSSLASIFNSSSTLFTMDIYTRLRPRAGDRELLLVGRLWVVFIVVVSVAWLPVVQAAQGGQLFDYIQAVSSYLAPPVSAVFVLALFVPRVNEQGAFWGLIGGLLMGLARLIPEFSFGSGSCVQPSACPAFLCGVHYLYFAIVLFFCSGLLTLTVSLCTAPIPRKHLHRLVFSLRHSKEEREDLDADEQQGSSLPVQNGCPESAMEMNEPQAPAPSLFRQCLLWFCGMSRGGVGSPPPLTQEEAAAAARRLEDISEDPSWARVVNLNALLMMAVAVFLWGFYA
The assay is described as follows: Cell-based assay for sodium-dependent glucose transport (14C-AMG uptake), CHO-K1 cells stably expressing human SGLT2. The note with it: Na-dependent 14C-AMG uptake; for IC50: read-out: CHOK-SGLT2 IC50; for inhibition at 10 µM: read-out: CHOK-SGLT2 % Inh at 10 uM. The procedure: as §1, §2, §3, §4

As usually defined, the IC50 is the concentration that gives 50% inhibition.

On to `CCc1ccc(Cc2c[nH]c3ccc([C@@H]4O[C@H](CO)[C@@H](O)[C@H](O)[C@H]4O)cc23)cc1` [Example 1, 3-(4-Ethylbenzyl)-5-(β-D-glucopyranosyl)-1H-indole], for which the “CHOK-SGLT1 IC50 (uM)” value at human SGLT1 was “inactive”. Moreover, at human SGLT2, the IC50 was found to be 132 ± 24 nM.

In the case of `COc1ccc(Cc2c[nH]c3ccc([C@@H]4O[C@H](CO)[C@@H](O)[C@H](O)[C@H]4O)cc23)cc1` [Example 2, 5-(β-D-Glucopyranosyl)-3-(4-methoxybenzyl)-1H-indole], at human SGLT1, the “CHOK-SGLT1 IC50 (uM)” value is “inactive”. The 50% inhibitory concentration (IC50) at human SGLT2 is 1390 ± 67 nM.

As for `COc1ccc(CCc2c[nH]c3ccc([C@@H]4O[C@H](CO)[C@@H](O)[C@H](O)[C@H]4O)cc23)cc1` [Example 3, 5-(β-D-Glucopyranosyl)-3-[2-(4-methoxyphenyl)-ethyl]-1H-indole], at human SGLT1, the “CHOK-SGLT1 IC50 (uM)” value was “inactive”. The inhibition at 10 µM on human SGLT2 stood at 60%.

For the molecule `CCc1ccc(Cc2c[nH]c3cccc([C@@H]4O[C@H](CO)[C@@H](O)[C@H](O)[C@H]4O)c23)cc1` [Example 4, 3-(4-Ethylbenzyl)-4-(β-D-glucopyranosyl)-1H-indole], the “CHOK-SGLT1 IC50 (uM)” value at human SGLT1 is “inactive”. Moreover, the inhibition at 10 µM on human SGLT2 was 12%.

These data come from patent publication US7816328B2, “Substituted fused heterocyclic C-glycosides” (Janssen Pharmaceutica NV, priority 2003, dated 2010).
